Laboratory results reported in ChEMBL document CHEMBL4507278 (2021).

Tests used:
[1] = test system: ALK tyrosine kinase receptor (Homo sapiens), Q9UM73 [L1196M]; settings: Compound concentration 1000.0 nM
[2] = test system: Tyrosine-protein kinase ABL1 (Homo sapiens), P00519 [F317I]; settings: Compound concentration 1000.0 nM
[3] = molecular target: Phosphatidylinositol 3-kinase C2 domain-containing subunit gamma (Homo sapiens) (UniProt O75747); settings: Compound concentration 1000.0 nM
[4] = molecular target: Tyrosine-protein kinase ABL1 (Homo sapiens) (UniProt P00519); settings: Compound concentration 1000.0 nM
[5] = molecular target: Serine/threonine-protein kinase VRK2 (Homo sapiens) (UniProt Q86Y07); settings: Compound concentration 1000.0 nM
[6] = molecular target: Fibroblast growth factor receptor 1 (Homo sapiens) (UniProt P11362); settings: Compound concentration 1000.0 nM
[7] = molecular target: Serine/threonine-protein kinase Chk1 (Homo sapiens) (UniProt O14757); settings: Compound concentration 1000.0 nM
[8] = molecular target: Ephrin type-A receptor 8 (Homo sapiens) (UniProt P29322); settings: Compound concentration 1000.0 nM
[9] = molecular target: Cyclin-dependent kinase 5 (Homo sapiens) (UniProt Q00535); settings: Compound concentration 1000.0 nM
[10] = molecular target: Interleukin-1 receptor-associated kinase 4 (Homo sapiens) (UniProt Q9NWZ3); settings: Compound concentration 1000.0 nM
[11] = molecular target: Serine/threonine-protein kinase ICK (Homo sapiens) (UniProt Q9UPZ9); settings: Compound concentration 1000.0 nM
[12] = molecular target: G protein-coupled receptor kinase 4 (Homo sapiens) (UniProt P32298); settings: Compound concentration 1000.0 nM
[13] = molecular target: Serine/threonine-protein kinase OSR1 (Homo sapiens) (UniProt O95747); settings: Compound concentration 1000.0 nM
[14] = molecular target: Serine/threonine-protein kinase Nek9 (Homo sapiens) (UniProt Q8TD19); settings: Compound concentration 1000.0 nM
[15] = molecular target: ALK tyrosine kinase receptor (Homo sapiens) (UniProt Q9UM73); settings: Compound concentration 1000.0 nM
[16] = molecular target: Insulin receptor (Homo sapiens) (UniProt P06213); settings: Compound concentration 1000.0 nM
[17] = molecular target: Receptor-interacting serine/threonine-protein kinase 1 (Homo sapiens) (UniProt Q13546); settings: Compound concentration 1000.0 nM
[18] = molecular target: RAC-alpha serine/threonine-protein kinase (Homo sapiens) (UniProt P31749); settings: Compound concentration 1000.0 nM
Sequence of RAC-alpha serine/threonine-protein kinase (Homo sapiens) (P31749 whole entry): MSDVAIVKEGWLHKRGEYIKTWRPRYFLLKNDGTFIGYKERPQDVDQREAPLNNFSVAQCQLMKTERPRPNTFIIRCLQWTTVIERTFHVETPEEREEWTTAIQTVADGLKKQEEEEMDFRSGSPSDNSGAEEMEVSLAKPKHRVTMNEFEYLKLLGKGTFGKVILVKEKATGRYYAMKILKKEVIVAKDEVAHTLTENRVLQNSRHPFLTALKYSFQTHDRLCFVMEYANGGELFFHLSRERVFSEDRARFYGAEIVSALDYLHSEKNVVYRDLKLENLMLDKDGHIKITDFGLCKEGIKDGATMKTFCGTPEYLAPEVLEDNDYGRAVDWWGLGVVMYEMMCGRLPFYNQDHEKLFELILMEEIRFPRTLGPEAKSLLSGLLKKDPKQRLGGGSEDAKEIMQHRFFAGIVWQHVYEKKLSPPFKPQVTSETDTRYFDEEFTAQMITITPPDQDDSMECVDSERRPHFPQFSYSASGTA

[19] = molecular target: Serine/threonine-protein kinase PAK 6 (Homo sapiens) (UniProt Q9NQU5); settings: Compound concentration 1000.0 nM
[20] = molecular target: Mitogen-activated protein kinase kinase kinase kinase 1 (Homo sapiens) (UniProt Q92918); settings: Compound concentration 1000.0 nM
[21] = test system: Epidermal growth factor receptor (Homo sapiens), P00533 [UNDEFINED MUTATION]; settings: Compound concentration 1000.0 nM
[22] = molecular target: 5-hydroxytryptamine receptor 2A (Homo sapiens) (UniProt P28223); settings: Compound concentration 10.0 uM
[23] = molecular target: Calcium/calmodulin-dependent protein kinase kinase 1 (Homo sapiens) (UniProt Q8N5S9); settings: Compound concentration 1000.0 nM
[24] = molecular target: Cyclin-dependent kinase-like 3 (Homo sapiens) (UniProt Q8IVW4); settings: Compound concentration 1000.0 nM
[25] = molecular target: Calcium/calmodulin-dependent protein kinase type 1G (Homo sapiens) (UniProt Q96NX5); settings: Compound concentration 1000.0 nM
Sequence of Calcium/calmodulin-dependent protein kinase type 1G (Homo sapiens) (Q96NX5 whole entry): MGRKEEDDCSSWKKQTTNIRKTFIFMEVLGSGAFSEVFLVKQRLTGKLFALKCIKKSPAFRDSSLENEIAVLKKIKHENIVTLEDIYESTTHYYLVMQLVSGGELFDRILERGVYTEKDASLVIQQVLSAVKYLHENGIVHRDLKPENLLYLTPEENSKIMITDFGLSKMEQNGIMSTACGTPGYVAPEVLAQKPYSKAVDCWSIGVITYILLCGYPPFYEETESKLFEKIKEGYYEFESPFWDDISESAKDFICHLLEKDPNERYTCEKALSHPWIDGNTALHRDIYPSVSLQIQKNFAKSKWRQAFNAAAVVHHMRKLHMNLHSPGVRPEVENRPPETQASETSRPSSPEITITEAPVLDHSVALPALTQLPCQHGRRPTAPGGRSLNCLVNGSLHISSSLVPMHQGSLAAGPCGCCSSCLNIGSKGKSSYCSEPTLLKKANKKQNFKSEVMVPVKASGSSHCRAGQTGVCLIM

[26] = molecular target: Tyrosine-protein kinase Mer (Homo sapiens) (UniProt Q12866); settings: Compound concentration 1000.0 nM
[27] = molecular target: Inhibitor of nuclear factor kappa-B kinase subunit epsilon (Homo sapiens) (UniProt Q14164); settings: Compound concentration 1000.0 nM
[28] = molecular target: Activin receptor type-1 (Homo sapiens) (UniProt Q04771); settings: Compound concentration 1000.0 nM
[29] = molecular target: Cyclin-dependent kinase 2 (Homo sapiens) (UniProt P24941); settings: Compound concentration 1000.0 nM
[30] = molecular target: Cyclin-G-associated kinase (Homo sapiens) (UniProt O14976); settings: Compound concentration 1000.0 nM
Sequence of Cyclin-G-associated kinase (Homo sapiens) (O14976 whole entry): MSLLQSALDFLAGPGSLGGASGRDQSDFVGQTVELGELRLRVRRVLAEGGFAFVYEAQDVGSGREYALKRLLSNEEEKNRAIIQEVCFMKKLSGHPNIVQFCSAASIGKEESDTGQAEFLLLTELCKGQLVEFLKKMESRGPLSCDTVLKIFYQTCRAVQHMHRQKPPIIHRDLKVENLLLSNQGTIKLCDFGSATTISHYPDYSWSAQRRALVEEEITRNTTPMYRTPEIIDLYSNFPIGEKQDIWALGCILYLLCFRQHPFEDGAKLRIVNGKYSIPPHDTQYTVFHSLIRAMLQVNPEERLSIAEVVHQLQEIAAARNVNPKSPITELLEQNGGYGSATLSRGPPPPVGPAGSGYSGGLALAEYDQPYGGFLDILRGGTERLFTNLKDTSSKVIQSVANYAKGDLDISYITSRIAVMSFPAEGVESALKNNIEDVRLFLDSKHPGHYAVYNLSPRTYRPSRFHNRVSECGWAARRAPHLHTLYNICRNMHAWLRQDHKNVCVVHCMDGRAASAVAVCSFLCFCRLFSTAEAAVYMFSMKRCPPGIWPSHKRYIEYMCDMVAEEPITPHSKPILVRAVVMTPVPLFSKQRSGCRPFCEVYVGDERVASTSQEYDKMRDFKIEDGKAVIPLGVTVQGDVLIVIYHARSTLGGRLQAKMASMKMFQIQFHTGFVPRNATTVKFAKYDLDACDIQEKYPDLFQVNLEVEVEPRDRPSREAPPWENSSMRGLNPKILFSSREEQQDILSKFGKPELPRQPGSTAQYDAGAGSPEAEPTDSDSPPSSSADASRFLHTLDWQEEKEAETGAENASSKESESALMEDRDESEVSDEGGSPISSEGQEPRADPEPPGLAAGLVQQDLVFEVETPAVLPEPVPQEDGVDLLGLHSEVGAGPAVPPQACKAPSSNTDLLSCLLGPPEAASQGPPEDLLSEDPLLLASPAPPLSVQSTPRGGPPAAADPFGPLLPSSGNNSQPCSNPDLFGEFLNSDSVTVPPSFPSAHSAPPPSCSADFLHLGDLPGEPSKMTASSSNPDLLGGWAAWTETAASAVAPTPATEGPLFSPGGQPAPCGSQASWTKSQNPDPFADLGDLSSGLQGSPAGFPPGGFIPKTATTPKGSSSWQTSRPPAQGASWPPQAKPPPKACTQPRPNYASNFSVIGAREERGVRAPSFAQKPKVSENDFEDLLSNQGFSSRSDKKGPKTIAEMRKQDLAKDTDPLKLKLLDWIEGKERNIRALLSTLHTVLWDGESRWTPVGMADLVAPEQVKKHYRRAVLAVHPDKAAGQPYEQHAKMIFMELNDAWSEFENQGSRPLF

[31] = molecular target: Dual specificity tyrosine-phosphorylation-regulated kinase 1A (Homo sapiens) (UniProt Q13627); settings: Compound concentration 1000.0 nM
[32] = molecular target: Serine/threonine-protein kinase D3 (Homo sapiens) (UniProt O94806); settings: Compound concentration 1000.0 nM
[33] = test system: Phosphatidylinositol 4,5-bisphosphate 3-kinase catalytic subunit alpha isoform (Homo sapiens), P42336 [E542K]; settings: Compound concentration 1000.0 nM
Sequence of Phosphatidylinositol 4,5-bisphosphate 3-kinase catalytic subunit alpha isoform (Homo sapiens), P42336 [E542K] (P42336 whole entry E542K, canonical isoform): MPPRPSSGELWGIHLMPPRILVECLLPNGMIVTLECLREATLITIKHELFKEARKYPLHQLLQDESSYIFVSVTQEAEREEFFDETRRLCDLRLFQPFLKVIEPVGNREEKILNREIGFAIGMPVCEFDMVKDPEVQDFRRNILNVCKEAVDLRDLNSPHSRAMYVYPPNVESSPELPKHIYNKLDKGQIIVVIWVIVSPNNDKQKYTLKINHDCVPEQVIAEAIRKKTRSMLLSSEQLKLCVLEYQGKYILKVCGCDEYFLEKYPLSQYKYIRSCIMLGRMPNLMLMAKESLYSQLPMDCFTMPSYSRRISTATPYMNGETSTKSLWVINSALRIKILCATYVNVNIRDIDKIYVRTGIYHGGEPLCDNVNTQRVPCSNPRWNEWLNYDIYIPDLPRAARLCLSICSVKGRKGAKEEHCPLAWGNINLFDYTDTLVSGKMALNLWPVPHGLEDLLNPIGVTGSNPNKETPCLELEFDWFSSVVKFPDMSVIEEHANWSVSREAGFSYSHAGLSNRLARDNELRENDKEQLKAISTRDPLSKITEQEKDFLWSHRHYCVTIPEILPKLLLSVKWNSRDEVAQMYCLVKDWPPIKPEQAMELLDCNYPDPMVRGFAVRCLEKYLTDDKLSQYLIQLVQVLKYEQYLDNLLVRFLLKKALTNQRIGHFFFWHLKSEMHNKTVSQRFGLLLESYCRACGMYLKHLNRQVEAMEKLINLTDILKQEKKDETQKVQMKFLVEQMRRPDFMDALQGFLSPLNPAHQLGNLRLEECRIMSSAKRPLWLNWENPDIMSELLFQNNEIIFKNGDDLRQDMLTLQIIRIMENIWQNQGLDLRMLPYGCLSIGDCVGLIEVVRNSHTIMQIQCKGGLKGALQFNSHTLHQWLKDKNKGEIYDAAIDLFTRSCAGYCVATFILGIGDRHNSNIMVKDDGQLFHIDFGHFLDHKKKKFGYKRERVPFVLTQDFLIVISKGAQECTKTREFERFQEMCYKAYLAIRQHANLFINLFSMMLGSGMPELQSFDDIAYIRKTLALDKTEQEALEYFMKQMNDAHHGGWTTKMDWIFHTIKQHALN

[34] = test system: Epidermal growth factor receptor (Homo sapiens), P00533 [L861Q]; settings: Compound concentration 1000.0 nM
[35] = test system: Receptor-type tyrosine-protein kinase FLT3 (Homo sapiens), P36888 [D835H]; settings: Compound concentration 1000.0 nM
[36] = molecular target: Dual specificity mitogen-activated protein kinase kinase 6 (Homo sapiens) (UniProt P52564); settings: Compound concentration 1000.0 nM
Sequence of Dual specificity mitogen-activated protein kinase kinase 6 (Homo sapiens) (P52564 whole entry): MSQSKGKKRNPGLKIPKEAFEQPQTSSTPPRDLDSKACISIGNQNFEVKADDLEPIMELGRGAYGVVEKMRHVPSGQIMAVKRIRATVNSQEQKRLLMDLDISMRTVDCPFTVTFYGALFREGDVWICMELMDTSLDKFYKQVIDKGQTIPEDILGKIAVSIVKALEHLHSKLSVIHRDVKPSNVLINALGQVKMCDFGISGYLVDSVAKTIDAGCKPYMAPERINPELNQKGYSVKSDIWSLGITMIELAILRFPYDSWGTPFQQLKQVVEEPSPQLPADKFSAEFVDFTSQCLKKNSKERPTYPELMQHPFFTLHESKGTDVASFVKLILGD

[37] = molecular target: Rho-associated protein kinase 1 (Homo sapiens) (UniProt Q13464); settings: Compound concentration 1000.0 nM
Sequence of Rho-associated protein kinase 1 (Homo sapiens) (Q13464 2-1354 limits assumed): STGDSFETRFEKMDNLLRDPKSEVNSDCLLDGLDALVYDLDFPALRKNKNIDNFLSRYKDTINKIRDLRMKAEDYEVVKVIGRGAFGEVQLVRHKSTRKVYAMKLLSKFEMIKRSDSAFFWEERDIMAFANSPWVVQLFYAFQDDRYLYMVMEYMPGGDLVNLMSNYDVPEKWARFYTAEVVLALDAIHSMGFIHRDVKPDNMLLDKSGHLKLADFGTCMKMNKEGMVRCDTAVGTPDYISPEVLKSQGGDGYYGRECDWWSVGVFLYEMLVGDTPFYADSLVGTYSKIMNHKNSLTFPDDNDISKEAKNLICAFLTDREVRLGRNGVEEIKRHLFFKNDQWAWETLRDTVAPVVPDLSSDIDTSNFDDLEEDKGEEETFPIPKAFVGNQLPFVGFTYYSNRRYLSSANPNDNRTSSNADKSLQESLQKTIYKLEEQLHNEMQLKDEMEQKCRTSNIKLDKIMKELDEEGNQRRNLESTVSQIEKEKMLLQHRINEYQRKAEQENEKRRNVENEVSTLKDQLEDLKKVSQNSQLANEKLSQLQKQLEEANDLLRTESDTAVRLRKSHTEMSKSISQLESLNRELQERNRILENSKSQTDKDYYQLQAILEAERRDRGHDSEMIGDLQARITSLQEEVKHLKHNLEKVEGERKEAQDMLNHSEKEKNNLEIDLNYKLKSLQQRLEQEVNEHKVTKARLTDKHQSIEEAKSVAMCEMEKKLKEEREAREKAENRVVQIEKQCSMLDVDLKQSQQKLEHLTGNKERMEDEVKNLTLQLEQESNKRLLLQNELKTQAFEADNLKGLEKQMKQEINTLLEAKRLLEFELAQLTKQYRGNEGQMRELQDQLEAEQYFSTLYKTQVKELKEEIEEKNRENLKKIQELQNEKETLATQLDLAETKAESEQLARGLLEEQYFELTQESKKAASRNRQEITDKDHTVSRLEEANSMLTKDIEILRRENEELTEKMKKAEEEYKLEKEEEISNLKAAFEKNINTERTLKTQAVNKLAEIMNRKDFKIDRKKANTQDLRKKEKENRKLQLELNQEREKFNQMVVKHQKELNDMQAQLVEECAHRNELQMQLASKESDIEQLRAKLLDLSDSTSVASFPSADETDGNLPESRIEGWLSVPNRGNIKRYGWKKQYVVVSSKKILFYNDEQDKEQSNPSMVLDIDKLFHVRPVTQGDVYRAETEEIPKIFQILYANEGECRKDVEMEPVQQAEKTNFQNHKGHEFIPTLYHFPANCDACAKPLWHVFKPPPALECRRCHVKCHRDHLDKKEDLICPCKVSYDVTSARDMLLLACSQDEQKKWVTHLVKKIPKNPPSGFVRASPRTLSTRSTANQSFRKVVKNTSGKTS

[38] = molecular target: Mu-type opioid receptor (Homo sapiens) (UniProt P35372); settings: Compound concentration 10.0 uM
[39] = molecular target: Cyclin-dependent kinase 4 (Homo sapiens) (UniProt P11802); settings: Compound concentration 1000.0 nM
[40] = molecular target: Ephrin type-B receptor 1 (Homo sapiens) (UniProt P54762); settings: Compound concentration 1000.0 nM
[41] = molecular target: BDNF/NT-3 growth factors receptor (Homo sapiens) (UniProt Q16620); settings: Compound concentration 1000.0 nM
[42] = molecular target: Receptor tyrosine-protein kinase erbB-3 (Homo sapiens) (UniProt P21860); settings: Compound concentration 1000.0 nM
[43] = molecular target: Cyclin-dependent kinase 3 (Homo sapiens) (UniProt Q00526); settings: Compound concentration 1000.0 nM
[44] = molecular target: Angiopoietin-1 receptor (Homo sapiens) (UniProt Q02763); settings: Compound concentration 1000.0 nM
[45] = molecular target: Mitogen-activated protein kinase kinase kinase kinase 4 (Homo sapiens) (UniProt O95819); settings: Compound concentration 1000.0 nM

CS(=O)(=O)NCC[C@H](NC(=O)c1cncc2c1cnn2-c1ccc(F)cc1)c1ccnc(S(C)(=O)=O)c1 [BI 9307]
inactive: residual activity [1] 100% | residual activity [2] 94% | residual activity [3] 86% | residual activity [4] 100% | residual activity [5] 100% | residual activity [6] 87% | residual activity [7] 97% | residual activity [8] 100% | residual activity [9] 100% | residual activity [10] 100% | residual activity [11] 100% | residual activity [12] 100% | residual activity [13] 88% | residual activity [14] 100% | residual activity [15] 100% | residual activity [16] 92% | residual activity [17] 99% | residual activity [18] 100% | residual activity [19] 100% | residual activity [20] 95% | residual activity [21] 92% | inhibition [22] 11.8% | residual activity [23] 100% | residual activity [24] 99% | residual activity [25] 100% | residual activity [26] 100% | residual activity [27] 78% | residual activity [28] 100% | residual activity [29] 100% | residual activity [30] 100% | residual activity [31] 100% | residual activity [32] 92% | residual activity [33] 66% | residual activity [34] 100% | residual activity [35] 100% | residual activity [36] 82% | residual activity [37] 100% | inhibition [38] -0.92% | residual activity [39] 100% | residual activity [40] 88% | residual activity [41] 100% | residual activity [42] 100% | residual activity [43] 100% | residual activity [44] 84% | residual activity [45] 86%

CS(=O)(=O)c1cc(C2(NC(=O)c3cncc4c3cnn4-c3ccc(F)cc3)CC2)ccn1 [BI 639667]
inactive: residual activity [1] 100% | residual activity [2] 79% | residual activity [3] 93% | residual activity [4] 71% | residual activity [5] 100% | residual activity [6] 95% | residual activity [7] 100% | residual activity [8] 99% | residual activity [9] 100% | residual activity [10] 100% | residual activity [11] 100% | residual activity [12] 100% | residual activity [13] 85% | residual activity [14] 100% | residual activity [15] 100% | residual activity [16] 100% | residual activity [17] 100% | residual activity [18] 100% | residual activity [19] 96% | residual activity [20] 89% | residual activity [21] 100% | inhibition [22] 20.4% | residual activity [23] 76% | residual activity [24] 96% | residual activity [25] 100% | residual activity [26] 100% | residual activity [27] 100% | residual activity [28] 100% | residual activity [29] 94% | residual activity [30] 85% | residual activity [31] 81% | residual activity [32] 97% | residual activity [33] 80% | residual activity [34] 100% | residual activity [35] 100% | residual activity [36] 74% | residual activity [37] 79% | inhibition [38] -7.9% | residual activity [39] 83% | residual activity [40] 91% | residual activity [41] 91% | residual activity [42] 100% | residual activity [43] 81% | residual activity [44] 100% | residual activity [45] 88%
